Laboratory results as given in the CheMixHub viscosity set.

Experiment: xn = mol fraction of the nth substance listed

COCCOCCO + CCOC(=O)OCC
298.15 K, 101.33 kPa
Settings | viscosity [mPa·s]
x1 = 0.0177 | 0.765
x1 = 0.0409 | 0.784
x1 = 0.0525 | 0.794
x1 = 0.0688 | 0.809
x1 = 0.0808 | 0.819
x1 = 0.0974 | 0.834
x1 = 0.1182 | 0.856
x1 = 0.1376 | 0.878
x1 = 0.1665 | 0.911
x1 = 0.1973 | 0.949
x1 = 0.2247 | 0.98
x1 = 0.26 | 0.984
x1 = 0.3011 | 1.095
x1 = 0.3362 | 1.148
x1 = 0.4104 | 1.282
x1 = 0.438 | 1.337
x1 = 0.4644 | 1.394
x1 = 0.4835 | 1.436
x1 = 0.5151 | 1.511
x1 = 0.5529 | 1.61
x1 = 0.5929 | 1.721
x1 = 0.6445 | 1.874
x1 = 0.6774 | 1.978
x1 = 0.7326 | 2.167
x1 = 0.7642 | 2.295
x1 = 0.8034 | 2.456
x1 = 0.8312 | 2.576
x1 = 0.861 | 2.709
x1 = 0.8942 | 2.87
x1 = 0.9328 | 3.065
x1 = 0.9487 | 3.15
x1 = 0.9554 | 3.189
x1 = 0.9613 | 3.221

CCCCCCCCCCO + CCCO
viscosity [mPa·s], 101 kPa
Settings | 298.15 K | 308.15 K | 318.15 K
x2 = 0.05 | 10.52 | 7.206 | 5.14
x2 = 0.1 | 10.05 | 6.914 | 4.927
x2 = 0.15 | 9.562 | 6.633 | 4.716
x2 = 0.2 | 9.064 | 6.36 | 4.508
x2 = 0.25 | 8.557 | 6.093 | 4.306
x2 = 0.3 | 8.046 | 5.831 | 4.109
x2 = 0.35 | 7.534 | 5.572 | 3.921
x2 = 0.4 | 7.023 | 5.314 | 3.741
x2 = 0.45 | 6.517 | 5.058 | 3.572
x2 = 0.5 | 6.018 | 4.802 | 3.416
x2 = 0.55 | 5.529 | 4.547 | 3.275
x2 = 0.6 | 5.052 | 4.293 | 3.15
x2 = 0.65 | 4.589 | 4.04 | 3.044
x2 = 0.7 | 4.142 | 3.79 | 2.96
x2 = 0.75 | 3.712 | 3.543 | 2.9
x2 = 0.8 | 3.303 | 3.301 | 2.866
x2 = 0.85 | 2.915 | 3.065 | 2.862
x2 = 0.9 | 2.549 | 2.839 | 2.89
x2 = 0.95 | 2.207 | 2.624 | 2.953

COCCOCCO + ClC=C(Cl)Cl
298.15 K, 101.33 kPa
Settings | viscosity [mPa·s]
x1 = 0.0091 | 0.537
x1 = 0.0258 | 0.553
x1 = 0.0362 | 0.567
x1 = 0.0477 | 0.582
x1 = 0.0679 | 0.61
x1 = 0.0896 | 0.643
x1 = 0.1146 | 0.685
x1 = 0.1489 | 0.742
x1 = 0.187 | 0.817
x1 = 0.2425 | 0.926
x1 = 0.2811 | 1.009
x1 = 0.3123 | 1.082
x1 = 0.3733 | 1.237
x1 = 0.4192 | 1.356
x1 = 0.4582 | 1.467
x1 = 0.4988 | 1.587
x1 = 0.541 | 1.725
x1 = 0.5789 | 1.849
x1 = 0.608 | 1.948
x1 = 0.6351 | 2.044
x1 = 0.6756 | 2.194
x1 = 0.7372 | 2.433
x1 = 0.7781 | 2.596
x1 = 0.811 | 2.73
x1 = 0.8467 | 2.882
x1 = 0.8774 | 3.015
x1 = 0.9167 | 3.194
x1 = 0.9481 | 3.329
x1 = 0.9733 | 3.449
x2 = 0.0104 | 3.531

Cl[Si](Cl)(Cl)Cl + COCOC
303.1 K, 101 kPa
Settings | viscosity [mPa·s]
x2 = 0.0989 | 0.419
x2 = 0.1906 | 0.412
x2 = 0.2879 | 0.402
x2 = 0.3682 | 0.405
x2 = 0.3933 | 0.41
x2 = 0.4424 | 0.414
x2 = 0.5106 | 0.428
x2 = 0.596 | 0.458
x2 = 0.6589 | 0.472
x2 = 0.7083 | 0.461
x2 = 0.7984 | 0.434
x2 = 0.8477 | 0.414
x2 = 0.9026 | 0.369

CCCCCCCCCCO + CCOC(C)=O
viscosity [mPa·s], 101.33 kPa
Settings | x2 = 0.1664 | x2 = 0.3099 | x2 = 0.4348 | x2 = 0.545 | x2 = 0.6423 | x2 = 0.7293 | x2 = 0.8073 | x2 = 0.8778 | x2 = 0.9418
298.15 K | 6.2 | 3.758 | 2.442 | 1.698 | 1.238 | 0.936 | 0.809 | 0.657 | 0.521
303.15 K | 5.263 | 3.279 | 2.171 | 1.533 | 1.235 | 0.864 | 0.719 | 0.613 | 0.497
308.15 K | 4.52 | 2.876 | 1.935 | 1.384 | 1.032 | 0.796 | 0.647 | 0.583 | 0.477

OCCOCCOCCO + CCCC(C)O
viscosity [mPa·s], 100 kPa
Settings | x1 = 0.0809 | x1 = 0.16 | x1 = 0.2401 | x1 = 0.35 | x1 = 0.44 | x1 = 0.5601 | x1 = 0.6499 | x1 = 0.7401 | x1 = 0.8501 | x1 = 0.9401
293.15 K | 4.98 | 6.16 | 7.62 | 10.23 | 12.89 | 17.73 | 22.03 | 27.33 | 34.9 | 42.55
298.15 K | 4.35 | 5.48 | 6.71 | 8.84 | 10.83 | 14.35 | 17.55 | 21.36 | 27.16 | 32.88
303.15 K | 3.57 | 4.56 | 5.62 | 7.33 | 8.95 | 11.76 | 14.33 | 17.37 | 21.79 | 26.06
308.15 K | 3.03 | 3.84 | 4.79 | 6.2 | 7.55 | 9.77 | 11.78 | 14.16 | 17.58 | 21.01
313.15 K | 2.48 | 3.16 | 3.93 | 5.1 | 6.26 | 8.19 | 9.89 | 11.86 | 14.62 | 17.22
318.15 K | 2.24 | 2.86 | 3.49 | 4.48 | 5.4 | 6.92 | 8.23 | 9.81 | 12.04 | 14.18
323.15 K | 1.94 | 2.47 | 3.03 | 3.87 | 4.64 | 5.92 | 6.99 | 8.27 | 10.15 | 11.91
